Laboratory results: ChEMBL document CHEMBL6153025, “Multidrug-resistant bacteria quorum-sensing inhibitors: A particular focus on Pseudomonasaeruginosa” (Eur J Med Chem, 2025)
≈ marks a conversion by molar mass, not a printed value.

Columns and labels:
[1] = tested on: Pseudomonas aeruginosa; assay: Downregulation of rhlA mRNA level in Pseudomonas aeruginosa PAO1 at 32 ug/ml relative to control; assay type: functional; conditions: dose 32 µg/ml
[2] = tested on: Pseudomonas aeruginosa; assay: Antibiofilm activity against logarithmic growth phase Pseudomonas aeruginosa PAO1 assessed as inhibition of biofilm formation incubated for 20 hrs by crystal violet staining based analysis; assay type: functional, organism-based; conditions: PAO1, 20 h
[3] = Inhibition of quorum sensing system in Pseudomonas aeruginosa PAO1-pqsA-gfp assessed as reduction in fluorescence intensity incubated for 12 hrs by GFP reporter strain assay
[4] = tested on: Pseudomonas aeruginosa; assay: Antivirulence activity against Pseudomonas aeruginosa PAO1 assessed as reduction in pyocyanin level at 10 uM relative to control; assay type: functional; design: scale not given: the % may be the effect or the level left
[5] = Inhibition of quorum sensing system in Pseudomonas aeruginosa PAO1- rhlA-gfp assessed as reduction in fluorescence intensity measured for 12 hrs by GFP reporter strain assay
[6] = tested on: Pseudomonas aeruginosa; assay: Anti-virulence effect in Pseudomonas aeruginosa PAO1 assessed as inhibition of rhamnolipid production at 250 ug/ml relative to control; assay type: functional; design: scale not given: the % may be the effect or the level left; conditions: dose 250 µg/ml
[7] = tested on: Pseudomonas aeruginosa; assay: Anti-virulence effect in Pseudomonas aeruginosa PAO1 assessed as inhibition of pyocyanin production at 250 ug/ml relative to control; assay type: functional; design: scale not given: the % may be the effect or the level left; conditions: dose 250 µg/ml
[8] = tested on: Pseudomonas aeruginosa; assay: Antibiofilm activity against Pseudomonas aeruginosa PAO1 assessed as reduction in biofilm formation at 16 ug/ml incubated for 2 to 4 hrs by crystal violet staining based analysis relative to control; assay type: functional; design: scale not given: the % may be the effect or the level left; conditions: dose 16 µg/ml; time 2-4 hrs
[9] = tested on: Pseudomonas aeruginosa; assay: Antibiofilm activity against Pseudomonas aeruginosa PAO1 assessed as inhibition of biofilm formation at 250 ug/ml incubated for 24 hrs by crystal violet staining based assay relative to control; assay type: functional; design: scale not given: the % may be the effect or the level left; conditions: dose 250 µg/ml
[10] = tested on: Pseudomonas aeruginosa; assay: Antibiofilm activity against Pseudomonas aeruginosa PA14 assessed as inhibition of biofilm formation at 16 ug/ml incubated for 24 hrs by microscopic analysis relative to control; assay type: functional; design: scale not given: the % may be the effect or the level left; conditions: dose 16 µg/ml
[11] = target: T1, Transcriptional activator protein LasR (Pseudomonas aeruginosa (strain ATCC 15692 / PAO1 / 1C / PRS 101 / LMG12228)) (UniProt P25084); assay: Inhibition of LasR-mediated quorum sensing system in Pseudomonas aeruginosa PAO1 at 128 ug/ml relative to control; conditions: dose 128.0 µg/ml
T1 sequence (whole entry): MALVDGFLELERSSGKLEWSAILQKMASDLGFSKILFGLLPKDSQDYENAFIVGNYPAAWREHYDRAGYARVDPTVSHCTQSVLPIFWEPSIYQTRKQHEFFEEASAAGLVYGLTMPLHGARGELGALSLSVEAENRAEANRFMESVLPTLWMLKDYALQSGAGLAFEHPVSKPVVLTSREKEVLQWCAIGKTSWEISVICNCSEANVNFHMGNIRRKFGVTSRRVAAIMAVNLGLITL

[12] = Inhibition of quorum sensing system in Pseudomonas aeruginosa PA14 assessed as inhibition of pyocyanin production at 128 ug/ml relative to control; conditions: dose 128.0 µg/ml
[13] = tested on: Pseudomonas aeruginosa; assay: Antivirulence activity against Pseudomonas aeruginosa PAO1 assessed as inhibition of pyocyanin production at 16 ug/ml relative to control; assay type: functional; design: scale not given: the % may be the effect or the level left; conditions: dose 16 µg/ml
[14] = tested on: Pseudomonas aeruginosa; assay: Downregulation of lasA mRNA expression in Pseudomonas aeruginosa PAO1 at 160 ug/ml incubated for 6 hrs by RT-qPCR analysis relative to control; assay type: functional; conditions: dose 160 µg/ml
[15] = tested on: Pseudomonas aeruginosa; assay: Antibiofilm activity against Pseudomonas aeruginosa ATCC 27853 assessed as inhibition of biofilm formation at 8 microg/ml incubated for 24 hrs by crystal violet staining based analysis relative to control; assay type: functional; design: scale not given: the % may be the effect or the level left; conditions: dose 8 µg/ml
[16] = tested on: Pseudomonas aeruginosa; assay: Antibiofilm activity against Pseudomonas aeruginosa PA14 assessed as reduction in biofilm formation; assay type: functional
[17] = tested on: Pseudomonas aeruginosa; assay: Anti-virulence effect in Pseudomonas aeruginosa PAO1 assessed as inhibition of rhamnolipid production at 10 uM relative to control; assay type: functional; design: scale not given: the % may be the effect or the level left
[18] = tested on: Pseudomonas aeruginosa; assay: Antivirulence activity against Pseudomonas aeruginosa PAO1 assessed as inhibition of pyocyanin production at 25 ug/ml incubated for 16 hrs under agitation by photometric analysis relative to control; assay type: functional; design: scale not given: the % may be the effect or the level left; conditions: dose 25 µg/ml
[19] = tested on: Pseudomonas aeruginosa; assay: Antibacterial activity against Pseudomonas aeruginosa PAO1 assessed as bacterial growth inhibition measured after 18 hrs by CLSI protocol based two-fold serial microdilution method; assay type: functional
[20] = Inhibition of quorum sensing system in Pseudomonas aeruginosa PAO1 expressing lasB-gfp assessed as reduction fluorescence intensity measured for 12 hrs by GFP reporter strain assay
[21] = tested on: Pseudomonas aeruginosa; assay: Antibiofilm activity against Pseudomonas aeruginosa PAO1 assessed as inhibition of biofilm formation at 32 ug/ml incubated for 8 hrs by crystal violet staining based assay relative to control; assay type: functional; design: scale not given: the % may be the effect or the level left; conditions: dose 32 µg/ml
[22] = tested on: Pseudomonas aeruginosa; assay: Antibiofilm activity against Pseudomonas aeruginosa PAO1 assessed as inhibition of biofilm formation incubated for 24 hrs by crystal violet staining based assay; assay type: functional, organism-based; conditions: PAO1, 24 h
[23] = tested on: Pseudomonas aeruginosa; assay: Antibacterial activity against Pseudomonas aeruginosa PAO1 assessed as bacterial growth inhibition after 24 hrs by liquid microdilution method; assay type: functional
[24] = tested on: Pseudomonas aeruginosa; assay: Downregulation of rhlI mRNA expression in Pseudomonas aeruginosa PAO1 at 160 ug/ml incubated for 6 hrs by RT-qPCR analysis relative to control; assay type: functional; conditions: dose 160 µg/ml
[25] = tested on: Pseudomonas aeruginosa; assay: Downregulation of lasB mRNA expression in Pseudomonas aeruginosa PAO1 at 160 ug/ml incubated for 6 hrs by RT-qPCR analysis relative to control; assay type: functional; conditions: dose 160 µg/ml
[26] = tested on: Pseudomonas aeruginosa; assay: Downregulation of rhlR mRNA expression in Pseudomonas aeruginosa PAO1 at 160 ug/ml incubated for 6 hrs by RT-qPCR analysis relative to control; assay type: functional; conditions: dose 160 µg/ml
[27] = tested on: Pseudomonas aeruginosa; assay: Downregulation of lasI mRNA expression in Pseudomonas aeruginosa PAO1 at 16 ug/ml relative to control; assay type: functional; conditions: dose 16 µg/ml
[28] = tested on: Pseudomonas aeruginosa; assay: Downregulation of lasR mRNA expression in Pseudomonas aeruginosa PAO1 at 16 ug/ml relative to control; assay type: functional; conditions: dose 16 µg/ml
[29] = tested on: Pseudomonas aeruginosa; assay: Antibiofilm activity against Pseudomonas aeruginosa PA14 assessed as reduction in biofilm formation at 16 ug/ml incubated for 2 to 4 hrs by crystal violet staining based analysis relative to control; assay type: functional; design: scale not given: the % may be the effect or the level left; conditions: dose 16 µg/ml; time 2-4 hrs
[30] = Inhibition of quorum sensing system in Pseudomonas aeruginosa PAO1 expressing lasB-gfp at 16 uM relative to control
[31] = tested on: Pseudomonas aeruginosa; assay: Downregulation of lasR mRNA expression in Pseudomonas aeruginosa PAO1; assay type: functional
[32] = tested on: Pseudomonas aeruginosa; assay: Antibiofilm activity against Pseudomonas aeruginosa PAO1 assessed as inhibition of biofilm formation at 16 ug/ml incubated for 24 hrs by crystal violet staining based assay relative to control; assay type: functional; design: scale not given: the % may be the effect or the level left; conditions: dose 16 µg/ml
[33] = tested on: Pseudomonas aeruginosa; assay: Downregulation of lasB mRNA level in Pseudomonas aeruginosa PAO1; assay type: functional
[34] = tested on: Pseudomonas aeruginosa; assay: Antibacterial activity against Pseudomonas aeruginosa PAO1 by broth microdilution method; assay type: functional
[35] = tested on: Pseudomonas aeruginosa; assay: Antivirulence activity against Pseudomonas aeruginosa PAO1 assessed as inhibition of rhamnolipid production at 16 ug/ml relative to control; assay type: functional; design: scale not given: the % may be the effect or the level left; conditions: dose 16 µg/ml
[36] = tested on: Pseudomonas aeruginosa; assay: Downregulation of rhlR mRNA expression level in Pseudomonas aeruginosa PAO1 at 200 uM by RT-PCR analysis relative to control; assay type: functional
[37] = tested on: Pseudomonas aeruginosa; assay: Downregulation of lasI mRNA expression level in Pseudomonas aeruginosa PAO1 at 200 uM by RT-PCR analysis relative to control; assay type: functional
[38] = tested on: Pseudomonas aeruginosa; assay: Antibiofilm activity against Pseudomonas aeruginosa PAO1; assay type: functional, organism-based
[39] = tested on: Pseudomonas aeruginosa; assay: Downregulation of rhlI mRNA expression level in Pseudomonas aeruginosa PAO1 at 200 uM by RT-PCR analysis relative to control; assay type: functional
[40] = tested on: Pseudomonas aeruginosa; assay: Downregulation of lasR mRNA expression level in Pseudomonas aeruginosa PAO1 at 200 uM by RT-PCR analysis relative to control; assay type: functional
[41] = Inhibition of quorum sensing system in Pseudomonas aeruginosa PAO1 expressing lasB-gfp
[42] = tested on: Pseudomonas aeruginosa; assay: Inhibition of pyocyanin production in Pseudomonas aeruginosa PAO1; assay type: functional, organism-based
[43] = tested on: Pseudomonas aeruginosa; assay: Inhibition of rhamnolipid production in Pseudomonas aeruginosa PAO1; assay type: functional, organism-based
[44] = tested on: Pseudomonas aeruginosa; assay: Anti-virulence activity in Pseudomonas aeruginosa PAO1 assessed as reduction in elastase production; assay type: functional, organism-based
[45] = tested on: Pseudomonas aeruginosa; assay: Antibiofilm activity against Pseudomonas aeruginosa ATCC 27853 assessed as reduction in biofilm biomass at 16 ug/ml relative to control; assay type: functional; design: scale not given: the % may be the effect or the level left; conditions: dose 16 µg/ml
[46] = Inhibition of quorum sensing system in Pseudomonas aeruginosa PAO1 expressing lasB-gfp at 10 uM relative to control
[47] = tested on: Pseudomonas aeruginosa; assay: Antibiofilm activity against Pseudomonas aeruginosa PAO1 assessed as inhibition of biofilm formation at 100 uM relative to control; assay type: functional; design: scale not given: the % may be the effect or the level left
[48] = tested on: Pseudomonas aeruginosa; assay: Antivirulence activity in Pseudomonas aeruginosa PAO1 assessed as reduction in elastase production at 10 uM relative to control; assay type: functional; design: scale not given: the % may be the effect or the level left

SMILES: C=C1CC(=O)N(c2ccc(Br)cc2)C1=O
- Activity [1]: 78%
- IC50 [2]: 10 µM
- IC50 [3]: 2.51 µM
- Activity [4]: 55%
- IC50 [5]: 6.67 µM

SMILES: O=C1CCc2ccccc2O1 [DIHYDROCOUMARIN]
- Activity [6]: 48.94%
- Activity [7]: 87.25%
- Activity [8]: 36%
- Activity [9]: 46.1%

SMILES: O=C(CN1CCOCC1)Nc1cccc([N+](=O)[O-])c1
- Activity [10]: 77%
- inhibition [11]: 45.1%
- inhibition [12]: 75%

SMILES: c1cc2c(cc1O[C@H]1OC[C@H]3[C@@H]1CO[C@@H]3c1ccc3c(c1)OCO3)OCO2 [SESAMOLIN]
- Activity [13]: 79%
- Activity [14]: 53.95%
- Activity [15]: 97%
- MIC [16]: 150 µg/mL (≈ 405 µM)
- Activity [17]: 42%

SMILES: Oc1ncnc2[nH]ncc12 [ALLOPURINOL]
- Activity [13]: 74%
- Activity [18]: 70%
- MIC [19]: 2 µg/mL (≈ 14.7 µM)
- Activity [17]: 74%

SMILES: [O-][S+](Cc1ccc(Cl)cc1)c1nnc(-c2ccccc2)o1 (centres undefined)
- IC50 [20]: 3.53 µM
- Activity [21]: 46.8%

SMILES: O=C/C=C/c1ccccc1
- IC50 [22]: 2.29 µM
- MIC [23]: 11.3 µM (≈ 1.5 µg/mL)
- Activity [24]: 70%
- Activity [14]: 65%
- Activity [25]: 28%
- Activity [26]: 99%
- Activity [27]: 86%
- Activity [28]: 98.56%

SMILES: CCCCCCC/C=C\C(=O)O
- Activity [29]: 8%
- inhibition [30]: 44%

SMILES: COc1ccccc1N1CCN(c2ccnc(SCC(=O)Nc3c(C)cc(C)cc3C)n2)CC1
- Activity [13]: 76.56%
- Activity [31]: 85%
- Activity [32]: 52.4%
- Activity [33]: 85%
- MIC [34]: 500 µM (≈ 239 µg/mL)
- Activity [35]: 62.46%

SMILES: O=C(O)c1ccccc1O [SALICYLIC ACID]
- IC50 [22]: 3.62 µM
- MIC [23]: 11.3 µM (≈ 1.57 µg/mL)
- Activity [18]: 32%
- Activity [24]: 82%
- Activity [14]: 31%
- Activity [25]: 22%
- Activity [26]: 70%
- Activity [27]: 60%
- Activity [28]: 78%

SMILES: O=c1cc(-c2ccc(O)c(O)c2)oc2cc(O)cc(O)c12 [LUTEOLIN]
- Activity [36]: 98%
- Activity [37]: 98%
- IC50 [38]: 50 µM
- Activity [39]: 98%
- Activity [40]: 98%

SMILES: O=C(/C=C/c1ccc(O)c(O)c1)OCCc1ccc(Br)cc1
- IC50 [41]: 20 µM
- IC50 [42]: 20 µM
- IC50 [43]: 1.25 µM
- IC50 [44]: 20 µM
- Activity [45]: 33.69%

SMILES: O=Cc1ccc2c(c1)OC(c1ccc(O)c(O)c1)O2 (centres undefined)
- inhibition [46]: 30%
- Activity [47]: 44.63%

SMILES: C=C1CC(=O)N(CCCCCCCCCCCCCC)C1=O
- Activity [1]: 75%
- IC50 [3]: 0.143 µM
- Activity [48]: 50%
- Activity [4]: 55%
- IC50 [5]: 0.61 µM

SMILES: c1cc2c(cc1[C@H]1OC[C@H]3[C@@H]1CO[C@@H]3c1ccc3c(c1)OCO3)OCO2 [SESAMIN]
- Activity [13]: 87%
- Activity [15]: 92%
- MIC [16]: 75 µg/mL (≈ 212 µM)
- Activity [17]: 51.31%
